# Source: PubChem BioAssay AID2060606 (Molecular Pharmacology Branch, DTP, NCI, 2025)
# System: 922993-354-T-J3-PDC complex spheroids, viability, % test/control
# Assay: Anticancer human tumor 922993-354-T-J3-PDC patient-derived endometrial carcinoma cell line growth inhibition [CLK]
# Settings: for IC50: curve of first compound; for viability, T/C: stronger effect = lower value
# Outline: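 Multi-cell-type spheroids combined patient-derived tumor cells with HUVEC endothelial cells and human mesenchymal stem cells. Paired agents were dosed in half-log steps down from about clinical Cmax, or from 10 microM where Cmax was unknown.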
# [1] = second compound 0.0316 µM, first compound 0.0316 µM
# [2] = second compound 0.0316 µM, first compound 0.1 µM
# [3] = second compound 0.0316 µM, first compound 0.316 µM
# [4] = second compound 0.0316 µM, first compound 1 µM
# [5] = second compound 0.0316 µM, first compound 3.16 µM
# [6] = second compound 0.0316 µM, first compound 10 µM
# [7] = second compound 0.1 µM, first compound 0.0316 µM
# [8] = second compound 0.1 µM, first compound 0.1 µM
# [9] = second compound 0.1 µM, first compound 0.316 µM
# [10] = second compound 0.1 µM, first compound 1 µM
# [11] = second compound 0.1 µM, first compound 3.16 µM
# [12] = second compound 0.1 µM, first compound 10 µM
# [13] = second compound 0.316 µM, first compound 0.0316 µM
# [14] = second compound 0.316 µM, first compound 0.1 µM
# [15] = second compound 0.316 µM, first compound 0.316 µM
# [16] = second compound 0.316 µM, first compound 1 µM
# [17] = second compound 0.316 µM, first compound 3.16 µM
# [18] = second compound 0.316 µM, first compound 10 µM
# [19] = second compound 1 µM, first compound 0.0316 µM
# [20] = second compound 1 µM, first compound 0.1 µM
# [21] = second compound 1 µM, first compound 0.316 µM
# [22] = second compound 1 µM, first compound 1 µM
# [23] = second compound 1 µM, first compound 3.16 µM
# [24] = second compound 1 µM, first compound 10 µM
# [25] = second compound 3.16 µM, first compound 0.0316 µM
# [26] = second compound 3.16 µM, first compound 0.1 µM
# [27] = second compound 3.16 µM, first compound 0.316 µM
# [28] = second compound 3.16 µM, first compound 1 µM
# [29] = second compound 3.16 µM, first compound 3.16 µM
# [30] = second compound 3.16 µM, first compound 10 µM
# [31] = second compound 10 µM, first compound 0.0316 µM
# [32] = second compound 10 µM, first compound 0.1 µM
# [33] = second compound 10 µM, first compound 0.316 µM
# [34] = second compound 10 µM, first compound 1 µM
# [35] = second compound 10 µM, first compound 3.16 µM
# [36] = second compound 10 µM, first compound 10 µM
# 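Also: spheroids exposed to the agents for 7 days before readout.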
smiles,measurement,setting,value
CC(C)CC(NC(=O)C(Cc1ccccc1)NC(=O)c1cnccn1)B(O)O (stereo unspecified) + CNC(=O)c1ccc(Nc2nc(OC3CCCC3)c3c(-c4ccc5nc(C)oc5c4)c[nH]c3n2)c(OC)c1,IC50,second compound 0.0316 µM,10.3 nM
same,IC50,second compound 0.1 µM,11.1 nM
same,IC50,second compound 0.316 µM,5.27 nM
same,IC50,second compound 1 µM,< 0.949 nM
same,IC50,second compound 3.16 µM,< 0.949 nM
same,IC50,second compound 10 µM,< 0.949 nM
same,"viability, T/C","second compound 0.0316 µM, first compound 0.000949 µM",106%
same,"viability, T/C","second compound 0.0316 µM, first compound 0.003 µM",91.4%
same,"viability, T/C","second compound 0.0316 µM, first compound 0.00949 µM",53%
same,"viability, T/C","second compound 0.0316 µM, first compound 0.03 µM",15%
same,"viability, T/C","second compound 0.0316 µM, first compound 0.0949 µM",1.67%
same,"viability, T/C","second compound 0.0316 µM, first compound 0.3 µM",2.25%
same,"viability, T/C","second compound 0.1 µM, first compound 0.000949 µM",79.8%
same,"viability, T/C","second compound 0.1 µM, first compound 0.003 µM",65.5%
same,"viability, T/C","second compound 0.1 µM, first compound 0.00949 µM",57.2%
same,"viability, T/C","second compound 0.1 µM, first compound 0.03 µM",10.3%
same,"viability, T/C","second compound 0.1 µM, first compound 0.0949 µM",2.17%
same,"viability, T/C","second compound 0.1 µM, first compound 0.3 µM",0.85%
same,"viability, T/C","second compound 0.316 µM, first compound 0.000949 µM",80.2%
same,"viability, T/C","second compound 0.316 µM, first compound 0.003 µM",64.4%
same,"viability, T/C","second compound 0.316 µM, first compound 0.00949 µM",35.2%
same,"viability, T/C","second compound 0.316 µM, first compound 0.03 µM",6.18%
same,"viability, T/C","second compound 0.316 µM, first compound 0.0949 µM",2.17%
same,"viability, T/C","second compound 0.316 µM, first compound 0.3 µM",0.48%
same,"viability, T/C","second compound 1 µM, first compound 0.000949 µM",36.8%
same,"viability, T/C","second compound 1 µM, first compound 0.003 µM",32.6%
same,"viability, T/C","second compound 1 µM, first compound 0.00949 µM",14%
same,"viability, T/C","second compound 1 µM, first compound 0.03 µM",3.9%
same,"viability, T/C","second compound 1 µM, first compound 0.0949 µM",0.77%
same,"viability, T/C","second compound 1 µM, first compound 0.3 µM",1.23%
same,"viability, T/C","second compound 3.16 µM, first compound 0.000949 µM",30.9%
same,"viability, T/C","second compound 3.16 µM, first compound 0.003 µM",19.4%
same,"viability, T/C","second compound 3.16 µM, first compound 0.00949 µM",2.49%
same,"viability, T/C","second compound 3.16 µM, first compound 0.03 µM",2.35%
same,"viability, T/C","second compound 3.16 µM, first compound 0.0949 µM",0.79%
same,"viability, T/C","second compound 3.16 µM, first compound 0.3 µM",0.78%
same,"viability, T/C","second compound 10 µM, first compound 0.000949 µM",25%
same,"viability, T/C","second compound 10 µM, first compound 0.003 µM",15%
same,"viability, T/C","second compound 10 µM, first compound 0.00949 µM",3.13%
same,"viability, T/C","second compound 10 µM, first compound 0.03 µM",3.29%
same,"viability, T/C","second compound 10 µM, first compound 0.0949 µM",0.81%
same,"viability, T/C","second compound 10 µM, first compound 0.3 µM",0.61%
CC1COCCN1c1cc(C2(S(C)(=N)=O)CC2)nc(-c2ccnc3[nH]ccc23)n1 (stereo unspecified) + CNC(=O)c1ccc(Nc2nc(OC3CCCC3)c3c(-c4ccc5nc(C)oc5c4)c[nH]c3n2)c(OC)c1,IC50,second compound 0.0316 µM,> 10000 nM
same,IC50,second compound 0.1 µM,> 10000 nM
same,IC50,second compound 0.316 µM,> 10000 nM
same,IC50,second compound 1 µM,< 31.6 nM
same,IC50,second compound 3.16 µM,< 31.6 nM
same,IC50,second compound 10 µM,< 31.6 nM
same,"viability, T/C",[1],88.2%
same,"viability, T/C",[2],108%
same,"viability, T/C",[3],98.8%
same,"viability, T/C",[4],115%
same,"viability, T/C",[5],106%
same,"viability, T/C",[6],104%
same,"viability, T/C",[7],111%
same,"viability, T/C",[8],119%
same,"viability, T/C",[9],115%
same,"viability, T/C",[10],116%
same,"viability, T/C",[11],101%
same,"viability, T/C",[12],80.5%
same,"viability, T/C",[13],67.4%
same,"viability, T/C",[14],56%
same,"viability, T/C",[15],55%
same,"viability, T/C",[16],66.9%
same,"viability, T/C",[17],75.9%
same,"viability, T/C",[18],40.5%
same,"viability, T/C",[19],35.2%
same,"viability, T/C",[20],33.1%
same,"viability, T/C",[21],34.1%
same,"viability, T/C",[22],34.7%
same,"viability, T/C",[23],27%
same,"viability, T/C",[24],14.7%
same,"viability, T/C",[25],34.1%
same,"viability, T/C",[26],32.8%
same,"viability, T/C",[27],31.1%
same,"viability, T/C",[28],32.3%
same,"viability, T/C",[29],21.1%
same,"viability, T/C",[30],9.92%
same,"viability, T/C",[31],32%
same,"viability, T/C",[32],27.5%
same,"viability, T/C",[33],28.2%
same,"viability, T/C",[34],27.5%
same,"viability, T/C",[35],20.6%
same,"viability, T/C",[36],9.29%
O=C(c1cc(Cc2n[nH]c(=O)c3ccccc23)ccc1F)N1CCN(C(=O)C2CC2)CC1 + CNC(=O)c1ccc(Nc2nc(OC3CCCC3)c3c(-c4ccc5nc(C)oc5c4)c[nH]c3n2)c(OC)c1,IC50,second compound 0.0316 µM,> 10000 nM
same,IC50,second compound 0.1 µM,> 10000 nM
same,IC50,second compound 0.316 µM,> 10000 nM
same,IC50,second compound 1 µM,< 31.6 nM
same,IC50,second compound 3.16 µM,< 31.6 nM
same,IC50,second compound 10 µM,< 31.6 nM
same,"viability, T/C",[1],99.4%
same,"viability, T/C",[2],106%
same,"viability, T/C",[3],101%
same,"viability, T/C",[4],106%
same,"viability, T/C",[5],110%
same,"viability, T/C",[6],101%
same,"viability, T/C",[7],104%
same,"viability, T/C",[8],107%
same,"viability, T/C",[9],98.3%
same,"viability, T/C",[10],105%
same,"viability, T/C",[11],111%
same,"viability, T/C",[12],101%
same,"viability, T/C",[13],73.5%
same,"viability, T/C",[14],72.1%
same,"viability, T/C",[15],67.1%
same,"viability, T/C",[16],66.5%
same,"viability, T/C",[17],66%
same,"viability, T/C",[18],51.8%
same,"viability, T/C",[19],36.1%
same,"viability, T/C",[20],38.5%
same,"viability, T/C",[21],32.3%
same,"viability, T/C",[22],35.6%
same,"viability, T/C",[23],44.1%
same,"viability, T/C",[24],39%
same,"viability, T/C",[25],32.2%
same,"viability, T/C",[26],36.8%
same,"viability, T/C",[27],25.4%
same,"viability, T/C",[28],34%
same,"viability, T/C",[29],28.4%
same,"viability, T/C",[30],33.5%
same,"viability, T/C",[31],34.1%
same,"viability, T/C",[32],24.7%
same,"viability, T/C",[33],31.5%
same,"viability, T/C",[34],34.2%
same,"viability, T/C",[35],34.8%
same,"viability, T/C",[36],33.8%
